Results from US20050065099A1, “Treatment of mitochondrial diseases” (priority 2003, published 2005).
pEC50: −log10 of the molar value.

Key:
Male C57/BL6 mice = experiment: MPTP animal model (neurobehavioral outcome); format: in vivo; details: 30 mg/kg/day ip; for functional deficit produced by MPTP: days 1-3; for functional outcome versus vehicle treated animals: days 1 and 2, comparable to negative control group
Procedure: In vivo evaluation is carried out using mice that have been treated with 1-methyl-4-phenyl-1,2,3,6-tetrahydropyridine (MPTP), a neurotoxin. […] In a number of species, including humans, […] and rodents, MPTP produces an irreversible and severe parkinsonian syndrome which includes virtually all the clinical features of the disease.
Male C57/BL6 mice (Harlan, Ind.), weight 25-30 g, were used in all studies. MPTP-HCl (Sigma) was administered i.p. according to one of the following protocols. The maximum volume which was given per injection is 200 μL. In all studies, animals were euthanized with carbon dioxide and, brains were removed for subsequent determination of dopamine depletion where appropriate.
Animals received 25 mg/kg of MPTP once a day for 5 consecutive days. The end point was 2 days after the final dose.
Animals received 4×20 mg/kg of MPTP at 2 hour intervals. The end point was at either 7 or 14 days.
Animals received 2×40 mg/kg of MPTP with this repeated 16 hours later. The end point was at either 14 or 28 days.
Animals received 25 mg/kg of MPTP, given twice weekly for 5 weeks. The end point was either 1, 3 or 24 weeks after the final dose.
Compound efficacy was examined with the use of neurobehavioral models. These models allowed the determination of a given compound's ability to reverse the motor deficits seen with MPTP treatment.
All animals received pre-training for the individual model and a baseline reading was obtained one day prior to the commencement of MPTP treatment.
The open field test was carried out in a clear, acrylic open box 60 cm×60 cm. The base of the box was marked into a 5×5 grid of […] squares. Animals were individually placed in the box and allowed to roam free. The number of squares an animal crossed in a 90 second time period was recorded. In order to be scored, the animal must either have had all four limbs within a given square or, all four limbs must have left a given square.
A tactile stimulus (0.5×0.5 cm square of “sticky tape”) was applied to each side of the animal's face and the time taken to remove it is recorded. The following measurements were recorded: • a. Latency to contact left side tape • b. Latency to contact right side tape • c. Order of side contacted (left vs. right) • d. Latency to remove left side tape • e. Latency to remove right side tape Pole Test
A rough surfaced metal pole (diameter 8 mm, height 50 cm) protruding from a cage filled with animal bedding was used for this test. Animals were placed head upwards at the top of the pole. They were required to turn and descend face downwards and the time taken for this was recorded (latency to reach bedding). Timing was started when the individual animal gripped the top of the pole and was stopped when all four limbs contacted the bedding.
All test compounds were administered ip. The maximum volume which was given per injection was 200 μL. Compounds were dosed up to twice daily, two days prior and 7 days post MPTP treatment.
A baseline reading was taken for each animal one day prior to MPTP treatment. All subsequent readings were normalized to the individual animal's baseline. Values were expressed as a percent baseline.
Data was percent baseline and expressed as mean±std dev: […]
Compound and vehicle given for 9 days in total, 2 days prior to MPTP and 7 days after MPTP treatment. L-DOPA given 1 hour prior to the pole test, each day.

FRDA fibroblasts = experiment: FRDA fibroblast assay for protection from oxidative stress; format: cell-based; details: Homo sapiens, 24 h preincubation, 1 mM BSO, compared to untreated FRDA fibroblasts, read-out: EC50 for reduction of cell death in FRDA fibroblasts
Text: A cellular assay using FRDA-patient derived fibroblasts (as described by Jauslin, M L et al, Human Molecular Genetics 11; 3055-3063 (2002)); is used to determine the cell protecting effect of the test compounds by analyzing survival of dermal fibroblasts taken from FRDA patients and unaffected normal donors under conditions of partial GSH depletion. Exposure of FRDA fibroblasts to BSO (L-buthionine (S,R)-sulfoximine) under conditions of restricted selenium causes depletion of cellular glutathione (GSH) and severe plasma membrane damage leading to cell death. Preincubation with the test compounds before the addition of BSO is used to determine if they can protect FRDA cells from BSO-mediated cell death.
Primary fibroblasts were derived from donors with a molecular diagnosis of FRDA and control donors with no mitochondrial disease. Lines F2, C2 and C3 were obtained from Coriell Cell Repositories (Camden, N.J., USA; catalog #'s GM04078, GM 08402 and GM08399, respectively). All cell types were diagnosed at the molecular level for intronic GAA triplet repeat length in the trataxin gene using a PCR-based method, according to methods known in the art. […] The cells were seeded in microtiter plates at a density of 4000 cells per 100 μl in growth medium consisting of 25% (v/v) M199 EBS and 64% (v/v) MEM EBS without phenol red (Bioconcept, Allschwil, Switzerland) supplemented with 10% (v/v) fetal calf serum (PAA Laboratories, Linz, Austria), 100 U/ml penicillin, 100 μg/ml streptomycin (PAA Laboratories, Linz, Austria), 10 μg/ml insulin (Sigma, Buchs, Switzerland), 10 μg/ml EGF (Sigma, Buchs, Switzerland), 10 μg/ml bFGF (PreproTech, Rocky Hill, N.J., USA) and 2 mM glutamine (Sigma, Buchs, Switzerland). The cells were incubated in the presence of the various test compounds for 24 h before addition of 1 mM BSO (L-buthionine (S,R)-sulfoximine).
Cell viability was measured after the first signs of toxicity appeared in the BSO-treated controls (typically after 16-48 h). The cells were stained for 60 min at room temperature in PBS with 1.2 μm calceinAM and 4 μm ethidium homodimer (Live/Dead assay, Molecular Probes, Eugene, Oreg., USA). Fluorescence intensity was measured with a Gemini Spectramax XS spectrofluorimeter (Molecular Devices, Sunnyvale, Calif., USA) using excitation and emission wavelengths of 485 and 525 nm, respectively.

[1] = test system: dopaminergic neuronal cell line; experiment: High glutamate-induced oxidative stress assay (HGOS); format: cell-based; details: Mus musculus; 30 mM glutamate, 16 hrs, Cell Tracker Green; read-out: EC50 for protection against HGOS cell injury and cell death
Text: Protection against redox stress can be further evaluated in cell culture using high glutamate induced oxidative stress (HGOS) in mouse dopaminergic cell lines. The cytotoxic effect of glutamate is not due to excitotoxicity, as this cell line is devoid of inotropic glutamate receptors. Rather, the glutamate-induced toxicity of dopaminergic cells is associated with an inhibition of cystine transport which subsequently leads to depletion of intracellular glutathione (GSH) levels (Murphy T. H., et al. Neuron 2, 1547-1558, 1989), activation of neuronal 12-lipoxygenase (Li, Y. et al., Neuron 19,453-463, 1997), increased ROS production (Tan S. et al., J. Cell Biol. 141, 1423-1432, 1998) and elevated intracellular Ca^2+ (Li, Y. et al., see supra). Some molecules were measured for their ability to protect such cells against glutamate-induced stress and the assay is detailed in Examples.
This procedure was used to induce high glutamate-induced oxidative stress (HGOS) in a dopaminergic neuronal cell line. Using this assay the potency and efficacy of test articles against HGOS neuronal cell injury and cell death was established in a high throughput manner.
The cells were seeded into 96-well plates at a density of 2000 per well and left to grow for 72 hours in a 33° C. incubator with 5% CO2 in air atmosphere. The passage number of the cells for each assay experiment were no later than p11 in order to minimize experimental variation.
All compounds were dissolved in DMEM-No Glu containing 1 mM glucose, 30 mM glutamate and 1× Pen/Strep. DMEM-No Glu with 1 mM glucose and 1×P/S was used as the negative control, DMEM-No Glucose with 1 mM glucose, […] was used as a positive control and 100 μM Glutathione was added to the positive control as a standard. All of the procedures for this involving the making and dilution of compounds were performed using aseptic conditions and with minimal light.
The plates were removed from the incubator and examined under the microscope for morphological appearance and density. Using an aseptic technique and an 8-channel aspirator the media was carefully removed from the cells and replaced with 200 μl of 1×HBSS. This was done as quickly as possible to prevent the cells drying out. The plates were then placed in the humidified 37° C. incubators of the Biomek 2000 Side Loader. Four plates were washed at a time so as to minimize the time that the cells were sitting in 1×HBSS prior to addition of the compound test solution.
The Beckman Biomek workstations were used to load the compounds and controls from the mother plates onto the cell plates that were prewashed with HBSS under sterile conditions. The plates were incubated in the upper HTS incubator at 37° C. in 5% CO2 for exactly 16 hrs. The following day, using the Beckman Biomek workstations, the plates were removed from the incubator. Using Cell Tracker Addition, the compounds were removed from the plates, washed once with […] of pre-warmed 1×HBSS and then 100 μL of 5 μM Cell Tracker Green was added to each well. The plates were incubated at 37° C. for 30 min to allow the dye to enter the cell and be cleaved by the esterases. After washing the cells twice with prewarmed 1×HBSS, the plates were read with the 485 excitation; 538 emission filter pair on a Fluoroskan.

Cc1c(O)cc2c(c1C)OC(C)(C)C=C2 [2,2,7,8-Tetramethyl-2H-chromen-6-ol]
functional deficit produced by MPTP (Male C57/BL6 mice): significantly reduced | functional outcome versus vehicle treated animals (Male C57/BL6 mice): significantly better | pEC50 (FRDA fibroblasts): 5.22 to 8.00

CC(C)=CCc1c(O)c(C)c(C)c2c1CCC(C)(C)O2 [2,2,7,8-Tetramethyl-5-(3-methyl-but-2-enyl)-chroman-6-ol]
functional deficit produced by MPTP (Male C57/BL6 mice): significantly reduced | functional outcome versus vehicle treated animals (Male C57/BL6 mice): significantly better

Cc1c(C)c2c(c(CCC(C)C)c1O)CCC(C)(C)O2 [2,2,7,8-Tetramethyl-5-(3-methyl-butyl)-chroman-6-ol]
pEC50 (FRDA fibroblasts): 5.22 to 8.00 | pEC50 [1]: ≥ 5.30

CC(C)=CCc1c(O)c(C)c(C)c2c1CCC(C)(CCCl)O2 (stereo not shown) [2-(2-Chloro-ethyl)-2,7,8-trimethyl-5-(3-methyl-but-2-enyl)-chroman-6-ol]
pEC50 (FRDA fibroblasts): 5.22 to 8.00 | pEC50 [1]: ≥ 5.30

Cc1c(O)cc2c(c1C)OC(C)(CCCl)CC2 (stereo not shown) [2-(2-chloro-ethyl)-2,7,8-trimethyl-chroman-6-ol]
pEC50 (FRDA fibroblasts): 5.22 to 8.00 | pEC50 [1]: ≥ 5.30

Cc1c(C)c2c(c(CSCC(NC(=O)CCC(N)C(=O)O)C(=O)NCC(=O)O)c1O)CCC(C)(CCCC(C)CCCC(C)CCCC(C)C)O2 (stereo not shown) [2-Amino-4-{1-(carboxymethyl-carbamoyl)-2-[6-hydroxy-2,7,8-trimethyl-2-(4,8,12-trimethyl-tridecyl)-chroman-5-ylmethylsulfanyl]-ethylcarbamoyl}-butyric acid]
pEC50 (FRDA fibroblasts): 5.22 to 8.00

COC(=O)CCC1(C)CCc2c(Br)c(O)c(C)c(C)c2O1 (stereo not shown) [3-(5-Bromo-6-hydroxy-2,7,8-trimethyl-chroman-2-yl)-propionic acid methyl ester]
functional deficit produced by MPTP (Male C57/BL6 mice): significantly reduced | functional outcome versus vehicle treated animals (Male C57/BL6 mice): significantly better | pEC50 (FRDA fibroblasts): 5.22 to 8.00 | pEC50 [1]: ≥ 5.30

Cc1cc(O)cc2c1OC(C)(CCC(=O)O)CC2 (stereo not shown) [3-(6-Hydroxy-2,8-dimethyl-chroman-2-yl)-propionic acid]
functional deficit produced by MPTP (Male C57/BL6 mice): significantly reduced | functional outcome versus vehicle treated animals (Male C57/BL6 mice): significantly better | pEC50 (FRDA fibroblasts): 5.22 to 8.00

CC(C)=CCc1c(O)c(C)c(C)c2c1CCC(C)(CCC(=O)O)O2 (stereo not shown) [3-[6-Hydroxy-2,7,8-trimethyl-5-(3-methyl-but-2-enyl)-chroman-2-yl]-propionic acid]
functional deficit produced by MPTP (Male C57/BL6 mice): significantly reduced | functional outcome versus vehicle treated animals (Male C57/BL6 mice): significantly better

Cc1c(O)cc2c(c1C)OC(C)(CCC(=O)NC(CCC(=O)NC(CS)C(=O)NCC(=O)O)C(=O)O)CC2 (stereo not shown) [4-[1-(Carboxymethyl-carbamoyl)-2-mercapto-ethylcarbamoyl]-2-[3-(6-hydroxy-2,7,8-trimethyl-chroman-2-yl)-propionylamino]-butyric acid]
pEC50 (FRDA fibroblasts): 5.22 to 8.00

Cc1c(O)cc2c(c1C)OC(C)(CCCC1SC(=O)NC1=O)CC2 (stereo not shown) [5-[3-(6-Hydroxy-2,7,8-trimethyl-chroman-2-yl)-propyl]-thiazolidine-2,4-dione]
pEC50 (FRDA fibroblasts): 5.22 to 8.00 | pEC50 [1]: ≥ 5.30

COC(=O)CSCc1c(O)c(C)c(C)c2c1CCC(C)(C)O2 [(6-Hydroxy-2,2,7,8-tetramethyl-chroman-5-ylmethylsulfanyl)-acetic acid methyl ester]
functional deficit produced by MPTP (Male C57/BL6 mice): significantly reduced | functional outcome versus vehicle treated animals (Male C57/BL6 mice): significantly better | pEC50 [1]: ≥ 5.30

Cc1cc(O)cc2c1OC(C)(CCCC(C)CCCC(C)CCCC(C)C)CC2 (stereo not shown) [Delta tocopherol, 2,8-dimethyl-2-(4,8,12-trimethyl-tridecyl)-chroman-6-ol]
pEC50 (FRDA fibroblasts): 5.22 to 8.00

CC(C)=CCCC(C)=CCCC(C)=CCCC1(C)CCc2cc(O)cc(C)c2O1 (stereo not shown) [Delta tocotrienol, 2,8-dimethyl-2-(4,8,12-trimethyl-trideca-3,7,11-trienyl)-chroman-6-ol]
pEC50 (FRDA fibroblasts): 5.22 to 8.00

Cc1c(O)cc2c(c1C)OC(C)(CCCC(C)CCCC(C)CCCC(C)C)CC2 (stereo not shown) [Gamma-tocopherol, 2,7,8-trimethyl-2-(4,8,12-trimethyltridecyl)-6-chromanol]
pEC50 (FRDA fibroblasts): 5.22 to 8.00

CC(C)=CCCC(C)=CCCC(C)=CCCC1(C)CCc2cc(O)c(C)c(C)c2O1 (stereo not shown) [Gamma-tocotrienol, 2,7,8-trimethyl-2-(4,8,12-trimethyl-trideca-3,7,11-trienyl)-chroman-6-ol]
pEC50 (FRDA fibroblasts): 5.22 to 8.00
